Test results from PubChem BioAssay (NCI).
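Each compound was tested at five concentrations against cells in 96-well plates for 48 hours. The concentration for 50% growth inhibition is given as GI50. Definition used: TGI = concentration required for complete inhibition of growth.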

Key:
Assay in all cases: growth of human tumour cells (NCI), 48 h
HCC-2998 colon = system: HCC-2998 colon
SN12C renal = system: SN12C renal
SR leukemia = system: SR leukemia
HCT-15 colon = system: HCT-15 colon
T-47D breast = system: T-47D breast
SK-MEL-2 melanoma = system: SK-MEL-2 melanoma
MCF7 breast = system: MCF7 breast
COLO 205 colon = system: COLO 205 colon
U251 CNS = system: U251 CNS
MDA-MB-231 breast = system: MDA-MB-231 breast

Compound	TGI (HCC-2998 colon) [µM]	TGI (SN12C renal) [µM]	TGI (SR leukemia) [µM]	TGI (HCT-15 colon) [µM]	TGI (T-47D breast) [µM]	TGI (SK-MEL-2 melanoma) [µM]	TGI (MCF7 breast) [µM]	TGI (COLO 205 colon) [µM]	TGI (U251 CNS) [µM]	TGI (MDA-MB-231 breast) [µM]	GI50 (HCC-2998 colon) [µM]	GI50 (SN12C renal) [µM]	GI50 (SR leukemia) [µM]	GI50 (HCT-15 colon) [µM]	GI50 (T-47D breast) [µM]	GI50 (SK-MEL-2 melanoma) [µM]	GI50 (MCF7 breast) [µM]	GI50 (COLO 205 colon) [µM]	GI50 (U251 CNS) [µM]	GI50 (MDA-MB-231 breast) [µM]
CCOC(=O)/C=C(/C(=O)OCC)n1ccc(=O)n(Cc2cn(COCCOC(C)=O)nn2)c1=O	36.2	> 100	52.6	55.6	81	64.4	28.3	> 100	83.3	67.9	–	–	–	–	–	–	–	–	–	–
CCN(CC)C(=S)N/N=C(/C)c1cccc(/C(C)=N\NC(=S)N(CC)CC)n1	23.8	12.4	2.4	17.1	16.9	20.3	5.3	11.3	8.74	7.64	–	–	–	–	–	–	–	–	–	–
NC(Cc1ccccc1)C(=O)N[C@H]1c2ccsc2/C(=N/O)[C@H]1O (stereo not given in full)	> 100	> 100	> 100	> 100	> 100	> 100	> 100	> 100	> 100	> 100	–	–	–	–	–	–	–	–	–	–
C=CC(CCc1ccc(C(=O)OCC)cc1)c1c(N)nc(N)[nH]c1=O (stereo not given)	> 100	> 100	> 100	> 100	> 100	> 100	> 100	> 100	> 100	> 100	–	–	–	–	–	–	–	–	–	–
c1ccc2c(c1)ccn2CCc1c[nH]c2ccccc12	> 10	> 10	> 10	> 10	> 10	> 10	> 10	> 10	> 10	> 10	–	–	–	–	–	–	–	–	–	–
CC1(C)NC2C(=O)c3c([nH]c4ccccc34)[C@]3(C)CCC1CC23 (stereo not given in full)	> 100	> 100	> 100	> 100	90.8	> 100	> 100	> 100	> 100	> 100	–	–	–	–	–	–	–	–	–	–
CSc1ncnc2c1ncn2C1CC(Oc2ccc(C)cc2)C(COc2ccc(C)cc2)O1 (stereo not given)	> 100	> 100	> 100	> 100	> 100	> 100	> 100	> 100	> 100	> 100	–	–	–	–	–	–	–	–	–	–
CNc1ccc(C(=O)CC(O)CCC(C)C2OC(=O)CC(O)CC(=O)CC(O)CC(O)CC(O)CC(O)CC3(O)CC(O)C(C(=O)OC)C(CC(O[C@@H]4O[C@H](C)[C@@H](O)[C@H](N)[C@@H]4O)/C=C/C=C/C=C/C=C/C=C/C=C/C=C/C2C)O3)cc1 (stereo not given in full)	12.3	2.99	5.47	> 100	> 100	8.86	19	6.6	56.4	> 100	3.25	1.46	2.33	4.9	3.37	3.59	3.18	2.69	3.87	2.88
C[N+](C)(C)CC1CCCCCCCCCCC1=O (stereo not given)	> 100	> 100	> 100	> 100	> 100	> 100	> 100	> 100	> 100	> 100	–	–	–	–	–	–	–	–	–	–
CCN(CC)C(=O)Cn1c(C)cc2ccccc21	> 100	> 100	> 100	> 100	> 100	> 100	> 100	> 100	> 100	> 100	–	–	–	–	–	–	–	–	–	–
CN1CCC(O)(C(C)(C)C)CC1	> 100	> 100	> 100	> 100	> 100	> 100	> 100	> 100	> 100	> 100	–	–	–	–	–	–	–	–	–	–
